In patent publication US20220304955A1 (Nacuity Pharmaceuticals, Inc., priority 2021, published 2022):
Counter-ions that a name gives are not always drawn. Positions of bridges follow the written chain, without caps; N, C: chain ends. Non-standard residues stand in square brackets, D forms with d. Residues, ends and D or L forms follow the SMILES beside them. *: point of attachment. Ileψ(thiazoline)Cys = CC[C@H](C)[C@H](N)C1=N[C@H](C(=O)*)CS1; dOrn = NCCC[C@@H](N)C(=O)O

Columns and labels:
[1] = test system: C. elegans; conditions: 10 mM DEM alone, 24 hour exposure; cited from earlier work
[2] = test system: N27 cells; conditions: for solvent concentration over which cell viability is reduced: rat, 24 h
Procedure: Viability of cells treated with water, dimethyl sulfoxide (DMSO) or NMP (0.3-20% v/v) for 24 hours. Data are means±SEM, n=3.
Materials and Methods. […] N27 cells, derived from E12 rat mesencephalic tissue (Merck, Australia), were cultured in RPMI 1640 media (ThermoFisher Scientific) supplemented with 10% fetal calf serum (Bovogen, Australia) and penicillin and streptomycin (ThermoFisher Scientific, Australia). Cells were cultured at 37° C. with 5% CO2. Cellular ferroptosis assays were used to evaluate anti-ferroptotic activity of test articles (Southon et al., 2019). Liproxstatin-1 (lip1) was used as an anti-ferroptotic control. […] Cell viability was measured by 3-[4,5-dimethylthiazol-2-yl]-2,5-diphenyltetrazolium bromide (MTT) assay, absorbance measured at 570 nm using a PowerWave XS microplate spectrophotometer (BioTek Instruments, Winooski, USA), and expressed as a percentage of control cells (Southon et al., 2019).
The toxicity profile of solvents NMP, DMSO and water were evaluated in N27 cells (FIG. 2).

[3] = test system: N27 cells; experiment: Cellular ferroptosis assay, cell viability by MTT; type: cell-based, rat; conditions: for preventing ferroptosis, NAC compared with NACA: 50 μM in media or PBS, erastin 0.1-8 μM, RSL3 3-400 nM or glutamate 3-400 mM, 24 hr; for anti-ferroptotic activity on pretreatment prior to ferroptosis induction: 50 or 500 μM in PBS for 24 hours, then erastin, RSL3 or glutamate for additional 24 hours; for prevention of ferroptosis induced by erastin, RSL3 and glutamate (cell viability): erastin 2 μM, RSL3 100 nM or glutamate 100 mM, added at same time, liproxstatin-1 4-250 nM, NAC, NACA (in water), diNACA (in NMP) 8-500 μM; for anti-ferroptotic activity on post-treatment: erastin, RSL3 or glutamate for 5 hours, then 50 or 500 μM in PBS for additional 19 hours
Procedure: Materials and Methods. […] Cells were cultured at 37° C. with 5% CO2.

[4] = test system: Caenorhabditis elegans; experiment: Caenorhabditis elegans Lifespan assay; type: in vivo; conditions: for Median survival: from late L4 larval/young adult stage, 25 °C, strain TJ1060
Procedure: NAC and NACA were dissolved in sterile water then added to the molten NGM at 55° C. Media containing equivalent vehicle alone (1% v/v DMSO) was used for comparison. 1% v/v DMSO was also added to NAC and NACA plates for consistency, as DMSO itself may affect lifespan. Standard overnight culture of the Escherichia coli strain OP50 was used as the food source. Lifespan data were collected at 25 (±1) ° C. using the temperature sensitive-sterile strain TJ1060 [spe-9(hc88); rrf-3(b26)] as a proxy for wildtype. A developmentally synchronous population was obtained by transferring egg-laying adults to fresh plates at 16° C. for 4 hours. The adults were removed and the plates with eggs then transferred to 25° C. to ensure sterility. After 48 hours at 25° C., when worms were at the late L4 larval/young adult stage, 25-35 nematodes were transferred to fresh plates containing either vehicle control (1% v/v DMSO), 1 mM NAC, 10 mM NAC, 1 mM NACA, 10 mM NACA, 1 mM diNACA, and 10 mM diNACA. All plates were coded to allowing blinding of the experimenter to the treatment regime during scoring. Nematodes were scored for survival at 1 to 2-day intervals and transferred to freshly prepared plates as needed (every 2-4 days). Worms lost not due to death were recorded as censored.
Results. Data was analyzed using GraphPad Prism 9, with survival curves compared using a long-rank (Mantel-Cox) test. P values are given for pair-wise comparisons to the vehicle control population.

[5] = test system: C. elegans; experiment: Diethyl maleate (DEM) assay, survival of C. elegans; type: in vivo, Caenorhabditis elegans; conditions: for % alive: then 10 mM DEM, scored at 24 hours
Procedure: Materials and Methods. Effects of NAC, NACA and diNACA on diethyl maleate (DEM; Sigma-Aldrich)-induced toxicity in C. elegans was evaluated. (10 mM DEM alone conjugates GSH causing 50% depletion of GSH and 50% lethality after 24 hour exposure (Jenkins et al., 2020)). DEM was added to neat DMSO and added to molten NGM at 55° C. to a final concentration of 10 mM DEM and 0.5% v/v DMSO. Plates were seeded with E. coli strain OP50. Data were collected at 25 (±1) ° C. using the temperature sensitive-sterile strain TJ1060. A synchronous population was obtained by transferring egg-laying adults to fresh plates at 16° C. for 2-3 hours. The adults were removed and the plates with eggs then transferred to 25° C. to ensure sterility. After 48 hours at 25° C., when worms were at the late L4/young adult stage, 70 nematodes were transferred to fresh plates containing either vehicle control, 1 mM NAC, 10 mM NAC, 1 mM NACA, 10 mM NACA, 1 mM diNACA, 10 mM diNACA (all with 1.0% v/v DMSO). Worms were aged at 25° C. for a further 4 days and then transferred to DEM plates, 35-45 per plate, two plates per treatment. Survival, determined by touch-provoked movement, was scored at 24 hours after exposure to DEM.

[6] = test system: C. elegans; conditions: Drug Age Database listing; cited from earlier work
[7] = Bioavailability after oral administration in rat (plasma levels); type: in vivo
Procedure: Materials and Methods. Bioavailability of diNACA after oral administration in rat was evaluated. NACA and diNACA, separately, were suspended in phosphate-buffered saline (pH 7) and dosed to rats by oral gavage. Blood specimens were collected and processed to produce plasma. Plasma specimens were analyzed for NAC, NACA and diNACA concentration.
The thiol moiety of NAC, NACA, or diNACA and their respective internal standards oxidizes quickly in plasma through formation of disulfides. In order to determine total NAC and total NACA levels in plasma, tris(2-carboxyethyl)phosphine (TCEP) is added during the extraction to reduce disulfide bonds. Ammonium bicarbonate is added to control sample pH near neutral, as TCEP will otherwise acidify the aliquoted samples and hinder derivatization. The free analyte is then derivatized to a stable thioether using 2-chloro-1-methylpyridinium iodide (CMPI). […]
Thioether derivatives of NAC and NACA for LCMS analyses. Samples were analyzed on a Waters Acquity liquid chromatograph interfaced with a Thermo Scientific TSQ Vantage triple quadrupole mass spectrometer with ESI ionization. […]

[8] = Solubility of diNACA in solvents; type: physicochemical
[9] = humans, oral dose of 600 mg; cited from earlier work

For `CCOC(=O)/C=C\C(=O)OCC` [DEM, diethyl maleate], the “depletion of GSH” value [1] is listed as 50% and the lethality [1] is listed as 50%.
In the case of `C[S+](C)[O-]` [DMSO, dimethyl sulfoxide], the “solvent concentration over which cell viability is reduced” value [2] is reported as “over 1.3%”.
For `O` [Water, water], the “effect of solvent on cell viability” value [2] was “did not reduce cell viability”.
With `CC(=O)N[C@@H](CS)C(N)=O` the “preventing ferroptosis, NAC compared with NACA” value [3] was “similarly effective at preventing ferroptosis”, the “anti-ferroptotic activity on pretreatment prior to ferroptosis induction” value [3] was “did not differentiate anti-ferroptotic activity” and the “prevention of ferroptosis induced by erastin, RSL3 and glutamate (cell viability)” value (“prevention of ferroptosis induced” for short) ([3]; 24 hours) was “efficacy in the micromolar range”. The “anti-ferroptotic activity on post-treatment” value [3] was “did not differentiate anti-ferroptotic activity”, the increase in lifespan ([4]; 1 mM) was “minor increase” and the “Median survival” value ([4]; 1 mM in NGM) was 10 days. For the same compound, the increase in lifespan ([4]; 10 mM) was “marked increase in lifespan”, the “Median survival” value ([4]; 10 mM in NGM) was 16 days and the “rescue from DEM-induced toxicity” value ([5]; 1 mM) was “rescue”. For the same compound, the “% alive” value ([5]; 1 mM pre-treatment 4 days) was 91%, the “rescue from DEM-induced toxicity” value ([5]; 10 mM) was “rescue” and the “% alive” value ([5]; 10 mM pre-treatment 4 days) was 98%.
For `Cc1ccc2c(c1)sc(-c1ccc(N(C)C)cc1)[n+]2C.[Cl-]` [thioflavin T], the “life extension of C. elegans” value [6] is given as 78%.
In the case of `Clc1cccc(CN=C2Nc3ccccc3NC23CCNCC3)c1` [Lip1, Liproxstatin-1, reference compound], the “prevention of ferroptosis induced” value ([3]; 24 hours) is reported as “nanomolar efficacy”.
In the case of `CC[C@H](C)[C@H](N)C1=N[C@H](C(=O)N[C@@H](CC(C)C)C(=O)N[C@H](CCC(=O)O)C(=O)N[C@H](C(=O)N[C@H]2CCCCNC(=O)[C@H](CC(N)=O)NC(=O)[C@@H](CC(=O)O)NC(=O)[C@H](Cc3cnc[nH]3)NC(=O)[C@@H](Cc3ccccc3)NC(=O)[C@H]([C@@H](C)CC)NC(=O)[C@@H](CCCN)NC2=O)[C@@H](C)CC)CS1` [bacitracin] ({Ileψ(thiazoline)Cys}-L[dE]IK[dOrn]I[dF]H[dD]N; lactam 4-C), the “life extension of C. elegans” value [6] is given as 74%.
In the case of `CC(=O)Nc1ccc(O)cc1` [acetaminophen], the “life extension of C. elegans” value [6] is given as 66%.
With `CN1CCCC1=O` [NMP, N-methyl pyrrolidone] the “solvent concentration over which cell viability is reduced” value [2] was “over 0.3%”.
For `CC(=O)N[C@@H](CSSC[C@H](NC(C)=O)C(N)=O)C(N)=O` [diNACA, (2R,2R′)-3,3′-disulfanediyl bis(2-acetamidopropanamide)], the “anti-ferroptotic activity on pretreatment prior to ferroptosis induction” value [3] was “did not differentiate anti-ferroptotic activity”, the “concentration at which a small effect on RSL3 toxicity is seen” value ([3]; diNACA solubilized in media (2-75 mM), RSL3 100 nM, 24 hours) was 75 mM and the “concentration partially preventing erastin and glutamate-induced toxicity” value ([3]; diNACA solubilized in media (2-75 mM), erastin 2 μM or glutamate 100 mM, 24 hours) was at least 5 mM. For the same compound, the “prevention of ferroptosis induced” value ([3]; 24 hours) was “did not prevent ferroptosis”, the “anti-ferroptotic activity on post-treatment” value [3] was “did not differentiate anti-ferroptotic activity” and the increase in lifespan ([4]; 1 mM) was “marked increase in lifespan”. For the same compound, the “Median survival” value ([4]; 1 mM in NGM) was 18 days, the increase in lifespan ([4]; 10 mM) was “marked increase in lifespan” and the “Median survival” value ([4]; 10 mM in NGM) was 18 days. For the same compound, the “lifespan of C. elegans relative to control” value ([4]; FIG. 8) was “more than doubled the lifespan”, the “percentage lifespan extension, increase in median lifespan” value ([4]; versus control) was 125% and the “rescue from DEM-induced toxicity” value ([5]; 1 mM) was “rescue”. For the same compound, the “% alive” value ([5]; 1 mM pre-treatment 4 days) was 95%, the “rescue from DEM-induced toxicity” value ([5]; 10 mM) was “rescue” and the “% alive” value ([5]; 10 mM pre-treatment 4 days) was 98%. The “metabolism, plasma levels of NACA and NAC” value ([7]; 200 mg/kg oral diNACA compared with oral NACA) was “metabolized to NACA and NAC to yield greater levels for longer periods of time compared to oral dosing with NACA”, the “absorption after oral administration” value ([7]; 200 mg/kg oral gavage, suspension in PBS pH 7) was “well absorbed” and the “solubility in water or DMSO” value ([8]; Nacuity data on file) was “not soluble in water or DMSO”. The “solubility in neat DMSO” value ([8]; suspension, dissolved upon addition to NGM) was “not fully soluble in DMSO”.
With `CC(=O)N[C@@H](CS)C(=O)O` [NAC, N-acetylcysteine, reference compound] the “preventing ferroptosis, NAC compared with NACA” value [3] was “similarly effective at preventing ferroptosis”, the “anti-ferroptotic activity on pretreatment prior to ferroptosis induction” value [3] was “did not differentiate anti-ferroptotic activity” and the “prevention of ferroptosis induced” value ([3]; 24 hours) was “efficacy in the micromolar range”. For the same compound, the “anti-ferroptotic activity on post-treatment” value [3] was “did not differentiate anti-ferroptotic activity”, the “Median survival” value ([4]; 1 mM in NGM) was 10 days and the increase in lifespan ([4]; 10 mM) was “minor increase”. For the same compound, the “Median survival” value ([4]; 10 mM in NGM) was 10 days, the “% alive” value ([5]; 1 mM pre-treatment 4 days) was 80% and the “rescue from DEM-induced toxicity” value ([5]; 10 mM) was “rescue”. The “% alive” value ([5]; 10 mM pre-treatment 4 days) was 89%, the “life extension of C. elegans” value [6] was 64% and the plasma half-life [9] was 2.5 h. For the same compound, the “time after administration at which no NAC is detectable” value [9] was 10 to 12 h.
